According to EP1059033A1, “INDUSTRIAL ANTIBACTERIAL/ANTIFUNGAL AGENTS, ALGICIDES AND ANTI-BIOLOGICAL ADHESION AGENTS CONTAINING BENZYLAMINES” (Nissan Chemical Industries, Ltd., priority 1998, dated 1999):
Values after ≈ are worked out from the molar mass of the structure shown.

System: freshwater green alga (Selenastrum capricornutum)
Assay: Inhibition of propagation of freshwater green alga (Example 4)
Format: cell-based
Conditions: 50ppb, after 72 hours, cell number vs non-treated lot, read-out: Propagation inhibiting rate(%) 50ppb
Procedure: A predetermined amount of each of the compounds of the invention was dissolved in a culture medium containing 10^5 /ml of a freshwater green alga (Selenastrum capricornutum) at a logarithmic growth phase to prepare samples having a concentration of the compound of the invention in the medium of 500 ppb and 50ppb respectively. The samples were stationary cultured at 23±1 °C for […] under continuous illumination.
After 72 hours, the number of cells was measured using a hemacytometer to obtain propagation rate. The propagation inhibiting rate was calculated from comparison with the non-treated lot.

| SMILES | inhibition at 0.05 ppm |
| --- | --- |
| Cc1ccc(CN(C)Cc2ccc(C(C)(C)C)cc2)cc1C [Compound 23] | 65% |

Same assay, conditions: 500ppb, after 72 hours, cell number vs non-treated lot, read-out: Propagation inhibiting rate(%) 500ppb

| SMILES | inhibition at 0.5 ppm |
| --- | --- |
| Cc1cccc(C)c1CN(C)Cc1ccc(C(C)(C)C)cc1 [Compound 5] | 75% |
| CN(Cc1ccc(C(C)(C)C)cc1)C1CCCc2ccccc21 (centres unmarked) [Compound 6] | 70% |
| Cc1ccc(CN(C)Cc2ccc(C(C)(C)C)cc2)cc1C [Compound 23] | 97% |

System: Trichophyton mentagrophytes
Assay: not given
Format: cell-based
Conditions: 72 h, 100 ppm
Procedure: 31.3 ml of Trichophyton mentagrophytes to be tested was added to 125 ml of a potato dextrose agar culture medium (Nissui Seiyaku Co.). The medium was stirred not to foam the solutions, poured into plates uniformly and solidified.
Thereafter, predetermined amounts of the compounds of the invention were weighted and diluted with acetone to predetermined concentrations.
Paper disks were impregnated with samples containing predetermined amounts of the compounds of the invention, laid on a filter, dried with air and placed on a plate containing test microbe at equal intervals.
Trichophyton mentagrophytes was cultured at 28 °C for 3 days in a thermostatic chamber and the diameter of each inhibiting zone was measured to evaluate the activity of each compound. Symbols in the table mean the followings; • A: Trichophyton mentagrophytes, • ++: strongly inhibiting zone (equal to or more than 21 mm) is observed, • +: inhibiting zone (10 to 20 mm) is observed, • -: no inhibiting zone is observed.

| SMILES | Judgment (Target bacteria: A) |
| --- | --- |
| Cc1cccc(C)c1CN(C)Cc1ccc(C(C)(C)C)cc1 [Compound 5] | ++ (strongly inhibiting zone (equal to or more than 21 mm) is observed) |
| CN(Cc1ccc(C(C)(C)C)cc1)C1CCCc2ccccc21 (centres unmarked) [Compound 6] | ++ (strongly inhibiting zone (equal to or more than 21 mm) is observed) |

System: freshwater blue-green alga (Microcystis aeruginosa)
Assay: Inhibition of propagation of freshwater algae (Example 6)
Format: cell-based
Conditions: 500ppb, 72hr, read-out: Propagation inhibiting rate(%) 500ppb 72hr
Procedure: (§1) A predetermined amount each of the compounds of the invention was dissolved in a culture medium containing 10^5 /ml of a freshwater alga at a logarithmic growth phase to prepare samples having a concentration of the compound of the invention in the medium of 500 ppb and 50 ppb respectively. A shaking culture at 100 rpm was performed for […] under continuous illumination at 20±2 °C for freshwater diatom and at 23±2 °C for other algae.
(§2) After 72 hours and 168 hours, the […] of cells was measured using a hemacytometer to obtain propagation rate. The propagation inhibiting rate was calculated from comparison with the non-treated lot. Symbols in the tables mean the followings; • A: freshwater green alga (Chlorella pyrenoidosa), • B: freshwater blue-green alga (Microcystis aeruginosa), • C: freshwater diatom (Diatoma elongatum), • D: freshwater green alga (Scenedesmus pannonicus).

| SMILES | inhibition at 0.5 ppm |
| --- | --- |
| Cc1cccc(C)c1CN(C)Cc1ccc(C(C)(C)C)cc1 [Compound 5] | 56% |

Same assay, conditions: 500ppb, 168hr, read-out: Propagation inhibiting rate(%) 500ppb 168hr

| SMILES | inhibition at 0.5 ppm |
| --- | --- |
| Cc1cccc(C)c1CN(C)Cc1ccc(C(C)(C)C)cc1 [Compound 5] | 62% |

System: freshwater green alga (Chlorella pyrenoidosa)
Assay: as above
Format: cell-based
Conditions: Auxenochlorella pyrenoidosa, 500ppb, 168hr, read-out: Propagation inhibiting rate(%) 500ppb 168hr
Procedure: as §1, §2

| SMILES | inhibition at 0.5 ppm |
| --- | --- |
| Cc1cccc(C)c1CN(C)Cc1ccc(C(C)(C)C)cc1 [Compound 5] | 62% |
| CN(Cc1ccc(C(C)(C)C)cc1)C1CCCc2ccccc21 (centres unmarked) [Compound 6] | 79% |

System: freshwater green alga (Scenedesmus pannonicus)
Assay: as above
Format: cell-based
Conditions: Desmodesmus pannonicus, 500ppb, 72hr, read-out: Propagation inhibiting rate (%) 500ppb 72hr
Procedure: as §1, §2

| SMILES | inhibition at 0.5 ppm |
| --- | --- |
| Cc1cccc(C)c1CN(C)Cc1ccc(C(C)(C)C)cc1 [Compound 5] | 76% |

Same assay, conditions: Desmodesmus pannonicus, 500ppb, 168hr, read-out: Propagation inhibiting rate (%) 500ppb 168hr

| SMILES | inhibition at 0.5 ppm |
| --- | --- |
| Cc1cccc(C)c1CN(C)Cc1ccc(C(C)(C)C)cc1 [Compound 5] | 78% |

System: Trichophyton mentagrophytes
Assay: Agar dilution MIC (Example 2)
Format: cell-based
Conditions: 168 h, agar plate, 27 °C, 7 days
Procedure: Series of diluted samples (20000, 10000, 5000, 2500, 2000, 1250, 625, 313, 156, 78, 39, 20, 10, 5, 2.5, 1.25 mg/l) of the compounds of the invention were prepared using dimethylsulfoxide. A sensitive culture medium-N (Nissui Seiyaku Co.) was used for bacteria and a potato dextrose agar culture medium (Nissui Seiyaku Co.) was used for fungi. 0.5 ml of each sample was added to and mixed with 9.5 ml of the culture medium, poured into a Petri dish and solidified to obtain a plate. As a result, the concentration of the compounds of the invention in the agar culture medium were 1000, 500, 250, 125, 100, 62.5, 31.3, 15.6, 7.8, 3.9, 2.0, 1.0, 0.5, 0.25, 0.125, 0.062 mg/l. The bacterium inoculated were cultured in a bouillon for the assay of sensitivity (Nissui Seiyaku Co.) at 37 °C for 20 hours, and the fungi were cultured in the potato dextrose agar culture medium (Nissui Seiyaku Co.) for 10 days and then a 10^6 CFU/ml suspension was prepared from each of them. A test bacteria or fungi suspension was streaked on an agar plate containing the compound of the present invention with platinum wire loop, and the agar plate was cultured at 37±1 °C for 18 to 20 hours for bacteria or at 27 °C for 7 days for fungi. A concentration at which no growth was seen was taken as minimum inhibitory concentration [MIC(mg/l)]. Symbols in the table mean the followings; • A: Bacillus subtilis, • B: Trichophyton mentagrophytes, • C: Rhodotorula mucilaginosa.

| MIC | SMILES |
| --- | --- |
| < 0.062 µg/mL | CN(Cc1ccc(C(C)(C)C)cc1)C1CCCc2ccccc21 (centres unmarked) [Compound 6] |
| 2 µg/mL (≈ 6.77 µM) | Cc1ccc(CN(C)Cc2ccc(C(C)(C)C)cc2)cc1C [Compound 23] |

System: Corynebacterium aquaticum
Assay: Agar dilution MIC (Example 3)
Format: cell-based
Conditions: Leifsonia aquatica, agar plate, 37±1 °C, 18 to 20 hours
Procedure: (§3) Series of diluted samples (20000, 10000, 5000, 2500, 1250, 625, 313, 156, 78, 39 mg/l) of the compounds of the invention were prepared using dimethylsulfoxide. A sensitive culture medium-N (Nissui Seiyaku Co.) was used for bacteria and a potato dextrose agar culture medium (Nissui Seiyaku Co.) was used for fungi. 0.5 ml of each sample was added to and mixed with 9.5 ml of the culture medium, poured into a Petri dish and solidified to obtain a plate. As a result, the concentration of the compounds of the invention in the agar culture medium were 1000, 500, 250, 125, 62.5, 31.3, 15.6, 7.8, 3.9, 2.0 mg/l. The bacterium inoculated were cultured in a bouillon for the assay of sensitivity (Nissui Seiyaku Co.) at 37 °C for 20 hours, and the fungi were cultured in the potato dextrose agar culture medium (Nissui Seiyaku Co.) for 10 days and then a 10^6 CFU/ml suspension was prepared from each of them. A test bacteria or fungi suspension was streaked on an agar plate containing the compound of the present invention with platinum wire loop, and the agar plate was cultured at 37±1 °C for 18 to 20 hours for bacteria or at 27 °C for 7 days for fungi. A concentration at which no growth was seen was taken as minimum inhibitory concentration (MIC). Symbols in the tables mean the followings; • A: Bacillus subtilis, • B: Trichophyton mentagrophytes, • C: Staphylococcus aureus, • D: Aspergillus niger, • E: Penicillium funiculosum, • F: Candida albicans, • G: Micrococcus luteus, • H: Corynebacterium aquaticum, • I: Chaetomium globosum, • J: Fusarium moniliforme, • K: Saccharomyces cerevisiae, • L: Rhodotorula rubra, • M: Cladosporium cladosporioides, • N: Alternaria alternata.

| MIC | SMILES |
| --- | --- |
| 15.6 µg/mL (≈ 50.7 µM) | CN(Cc1ccc(C(C)(C)C)cc1)C1CCCc2ccccc21 (centres unmarked) [Compound 6] |
| 31.3 µg/mL (≈ 106 µM) | Cc1ccc(CN(C)Cc2ccc(C(C)(C)C)cc2)cc1C [Compound 23] |

| SMILES | MIC |
| --- | --- |
| Cc1cccc(C)c1CN(C)Cc1ccc(C(C)(C)C)cc1 [Compound 5] | 7.8 µg/mL (≈ 26.4 µM) |

System: Saccharomyces cerevisiae
Assay: Agar dilution MIC (Example 3)
Format: cell-based
Conditions: 168 h, agar plate, 27 °C, 7 days
Procedure: as §3

| MIC | SMILES |
| --- | --- |
| 31.3 µg/mL (≈ 102 µM) | CN(Cc1ccc(C(C)(C)C)cc1)C1CCCc2ccccc21 (centres unmarked) [Compound 6] |
| 125 µg/mL (≈ 423 µM) | Cc1ccc(CN(C)Cc2ccc(C(C)(C)C)cc2)cc1C [Compound 23] |

| SMILES | MIC |
| --- | --- |
| Cc1cccc(C)c1CN(C)Cc1ccc(C(C)(C)C)cc1 [Compound 5] | 63 µg/mL (≈ 213 µM) |

System: Cladosporium cladosporioides
Assay: Agar dilution MIC (Example 3)
Format: cell-based
Conditions: 168 h, agar plate, 27 °C, 7 days
Procedure: as §3

| MIC | SMILES |
| --- | --- |
| 125 µg/mL (≈ 407 µM) | CN(Cc1ccc(C(C)(C)C)cc1)C1CCCc2ccccc21 (centres unmarked) [Compound 6] |
| 125 µg/mL (≈ 423 µM) | Cc1ccc(CN(C)Cc2ccc(C(C)(C)C)cc2)cc1C [Compound 23] |

| SMILES | MIC |
| --- | --- |
| Cc1cccc(C)c1CN(C)Cc1ccc(C(C)(C)C)cc1 [Compound 5] | 31.3 µg/mL (≈ 106 µM) |

System: Penicillium funiculosum
Assay: Agar dilution MIC (Example 3)
Format: cell-based
Conditions: Talaromyces funiculosus, 168 h, agar plate, 27 °C, 7 days
Procedure: as §3

| SMILES | MIC |
| --- | --- |
| Cc1cccc(C)c1CN(C)Cc1ccc(C(C)(C)C)cc1 [Compound 5] | 15.6 µg/mL (≈ 52.8 µM) |
| Cc1ccc(CN(C)Cc2ccc(C(C)(C)C)cc2)cc1C [Compound 23] | 63 µg/mL (≈ 213 µM) |

System: Fusarium moniliforme
Assay: Agar dilution MIC (Example 3)
Format: cell-based
Conditions: Fusarium verticillioides, 168 h, agar plate, 27 °C, 7 days
Procedure: as §3

| SMILES | MIC |
| --- | --- |
| Cc1cccc(C)c1CN(C)Cc1ccc(C(C)(C)C)cc1 [Compound 5] | 7.8 µg/mL (≈ 26.4 µM) |
| Cc1ccc(CN(C)Cc2ccc(C(C)(C)C)cc2)cc1C [Compound 23] | 125 µg/mL (≈ 423 µM) |

System: Chaetomium globosum
Assay: Agar dilution MIC (Example 3)
Format: cell-based
Conditions: 168 h, agar plate, 27 °C, 7 days
Procedure: as §3

| SMILES | MIC |
| --- | --- |
| Cc1cccc(C)c1CN(C)Cc1ccc(C(C)(C)C)cc1 [Compound 5] | 15.6 µg/mL (≈ 52.8 µM) |
| Cc1ccc(CN(C)Cc2ccc(C(C)(C)C)cc2)cc1C [Compound 23] | 125 µg/mL (≈ 423 µM) |

System: Alternaria alternata
Assay: Agar dilution MIC (Example 3)
Format: cell-based
Conditions: 168 h, agar plate, 27 °C, 7 days
Procedure: as §3

| SMILES | MIC |
| --- | --- |
| Cc1cccc(C)c1CN(C)Cc1ccc(C(C)(C)C)cc1 [Compound 5] | 125 µg/mL (≈ 423 µM) |

System: Aspergillus niger
Assay: Agar dilution MIC (Example 3)
Format: cell-based
Conditions: 168 h, agar plate, 27 °C, 7 days
Procedure: as §3

| SMILES | MIC |
| --- | --- |
| Cc1cccc(C)c1CN(C)Cc1ccc(C(C)(C)C)cc1 [Compound 5] | < 2 µg/mL |

System: Rhodotorula rubra
Assay: Agar dilution MIC (Example 3)
Format: cell-based
Conditions: 168 h, agar plate, 27 °C, 7 days
Procedure: as §3

| SMILES | MIC |
| --- | --- |
| Cc1cccc(C)c1CN(C)Cc1ccc(C(C)(C)C)cc1 [Compound 5] | 63 µg/mL (≈ 213 µM) |
